According to PubChem BioAssay AID504611 (National Center for Advancing Translational Sciences (NCATS), 2011):

Test system: Caco-2 monolayer permeability, A-to-B, LC-MS/MS
Test: Inhibitors of 12-hLO: Caco-2 Permeability Profiling
Conditions: stronger effect = higher value
Source text: Assay Provider: Holman, T.R., University of California, Santa Cruz Grant #: MH08128301 Screening Center PI: Austin, C.P. Screening Center: NIH Chemical Genomics Center [NCGC] Human lipoxygenase 12hLO is a member of the closely related lipoxygenase family of enzymes which catalyze the site-specific oxidation of arachidonic acid to various hormone precursor molecules and as such is a candidate for drug development in a variety of disease areas, such as cancer and inflammation. After qHTS, hits were confirmed in follow-up assays, and leads were optimized through SAR. The resulting lead compound was further characterized through a battery ADME-Tox experiments and this assay describes its Caco-2 permeability. This permeability assay predicts the in vivo absorption of the lead across the intestinal lining by using a Caco-2 cell line and measuring the lead's rate of transport […].
1. Buffer Preparation: Prepare 1M HEPES: add 23.83g HEPES to 100ml of 0.85% NaCl Prepare HBSS+ buffer: add 12.8ml of 1M HEPES in 0.85% NaCl to 500ml HBSS buffer. 2. Take out the compounds from -80 degrees C, ultrasonicate or pre-warm for a few minutes to thaw the compounds. 3. […] The T0, LY and T90, LY plates are read by FlexStation 3 at excitation of 485 nm and emission of 535 nm to determine LY permeability. […]

CC(=O)NC(c1cccs1)c1cc(Br)c2cccnc2c1O (stereo unspecified)
permeability Papp: 8.8 10^-6 cm/s
